According to patent publication US20240009205A1, “THERAPEUTIC COMBINATION FOR THE TREATMENT OF BREAST CANCER” (IFOM - FONDAZIONE ISTITUTO FIRC DI ONCOLOGIA MOLECOLARE, priority 2020, published 2024):
Where two headings read alike, the source gives them in different places. Each block holds one molecule with its values, some of them ahead of it.

Experiments:
[1] = system: EGR1, PTEN and 4E-BP1 levels in MCF7 cells; experiment: immunoblotting of EGR1, PTEN and 4E-BP1 in MCF7; type: cell-based, human; settings: supplementation
Procedure: For protein lysate generation from cultured cells, 5×10^4 MCF7, T47D or ZR-75-1 cells were plated in 6-well plates in CTR medium. After 24 h medium was removed, cells were washed with PBS and incubated either in CTR or STS medium. […] Where indicated, cells were supplemented with insulin ([…]), IGF1 (5 ng/ml), leptin ([…]), or 17β-estradiol (100 nM). 24 h later, cells were washed and protein lysates were generated as described elsewhere^34,35. Protein lysates from primary tumors or mouse uteri were obtained using TissueRuptor (Quiagen). Proteins (35 μg) were separated by SDS-PAGE, transferred to a PVDF membrane (Immobilon-P, Millipore S.p.A.), and detected with the following antibodies: anti-phospho-AKT (Ser473; #4058), anti-AKT (#9272), anti-PTEN (#9552), anti-phospho-p70S6kinase (Thr389; #9206), anti-p70S6kinase (#9202), anti-4E-BP1 (#4923), anti-phospho-eIF4E ([…]; #9741), anti-phospho-RB (Ser807/811; #9308), anti-RB (#9309), anti-CCND1 (#2978) were all from Cell Signaling Technology; anti-phospho-AMPK (Thr172; PA5-2 17831), anti-AMPK (PA5-29679), anti-EGR1 (MA5-15008) were from Thermo Fisher; anti-β-actin was from Santa Cruz Biotechnology. Band intensities were quantified by Quantity One SW software (Bio-Rad Laboratories, Inc.) using standard enhanced chemiluminescence.

[2] = system: ER transcriptional activity; experiment: ER luciferase reporter assay and ER target gene expression; type: cell-based, human; settings: HR+ BC cell lines, TFF1, PGR, GREB1 expression
HR+/HER2− BC cell lines = settings: cited from earlier work
MCF7 cells [3] = experiment: cell viability assay, control and EGR1-silenced MCF7; type: cell-based, human
[4] = system: metastases-derived organoids from patients with HR+ BC; experiment: organoid viability assay; type: cell-based, human; settings: TMX with STS medium
MCF7 cells [5] = experiment: gene expression microarrays and GSEA in MCF7; type: cell-based, human; settings: 5 μM TMX combined with STS

Molecule: C[C@]12CC[C@@H]3c4ccc(O)cc4CC[C@H]3[C@@H]1CC[C@@H]2O [17β-estradiol]
- increase in EGR1, PTEN and 4E-BP1 induced by the TMX-STS combination [1]: prevented the increase in EGR1, PTEN and 4E-PBP1

- ER inhibition under STS [2]: enhanced
Molecule: C[C@]12CC[C@@H]3c4ccc(O)cc4C[C@@H](CCCCCCCCC[S+]([O-])CCCC(F)(F)C(F)(F)F)[C@H]3[C@@H]1CC[C@@H]2O (stereo partly drawn) [FULV, fulvestrant]
- antitumor activity under STS (low-serum, low-glucose) (HR+/HER2− BC cell lines): increased the antitumor activity

Molecule: CC(C)NC[C@@H](C(=O)N1CCN(c2ncnc3c2[C@H](C)C[C@H]3O)CC1)c1ccc(Cl)cc1 [GDC0068]
- protection of EGR1-silenced BC cells from combined ET and STS (MCF7 cells [3]; GDC0068 1 μM, AZD5363 400 nM, LY294002 2 μM): abolished such protection

- ER inhibition under STS [2]: enhanced
Molecule: CC/C(=C(\c1ccccc1)c1ccc(OCCN(C)C)cc1)c1ccccc1 [TMX, tamoxifen]
- antitumor activity under STS [4]: increased the antitumor activity
- cell cycle-related gene categories (GSEA) (MCF7 cells [5]): downregulation
- antitumor activity under STS (low-serum, low-glucose) (HR+/HER2− BC cell lines): increased the antitumor activity

Molecule: AZD5363
- protection of EGR1-silenced BC cells from combined ET and STS (MCF7 cells [3]): abolished such protection
